We go through eleven compounds from patent US10239851B2 (priority 2014, dated 2019).

Molecules are shown by their SMILES. Where two headings read alike, the source gives them in different places.

Data set [1] is described as follows: In vitro dissociation of the water soluble taxane derivatives in blood plasma of rat. Type of data set: in vitro ADME, SD rats. To be noted: 37° C. The procedure: The obtained water soluble taxane derivatives were formulated as 0.2 mg/ml aqueous solutions. […] After 2 min, 5 min and 10 min of incubation, 0.2 ml of solutions were respectively taken from each of the samples, and added to acetonitrile (0.4 ml) cooled to −20° C. for precipitation of protein.

Data set [2] can be described thus: Solubility of the water soluble taxane derivatives in physiological saline. The format is physicochemical.
Data set [3] in a line: In vitro dissociation of the water soluble taxane derivatives in blood plasma of rabbit. The format is in vitro ADME, New Zealand white rabbits. To be noted: 37° C. The procedure: The obtained water soluble taxane derivatives were formulated as 0.2 mg/ml aqueous solutions. […] After 5 min, 20 min and 60 min of incubation, 0.2 ml of solutions were respectively taken from each of the samples, and added to acetonitrile (0.4 ml) cooled to −20° C. for precipitation of protein.

For data set [4] the following is noted: rats, 5 mg/kg intravenous, 5 min after administration.
Description: (§1) After 5 min of administration, 0.3 ml of venous blood was taken from the retrobulbar venous plexus of the rats, placed in heparinized tubes, and centrifuged at 11,000 rpm for 5 min. Plasma was separated, and the concentrations of the compounds in the plasma were determined by liquid chromatography □-mass spectrometry.
Data set [5] relates to mice. To be noted: cited from earlier work.
Data set [6] deals with human ovarian cancer SK-OV-3.
Excerpt: Test of the inhibitory activity of the water soluble paclitaxel derivatives on subcutaneously xenografted tumor of human ovarian cancer SK-OV-3 in nude mice: evaluating and comparing the inhibitory activity of the water soluble paclitaxel derivatives of the present invention, paclitaxel and Abraxane® on subcutaneously xenografted tumor of human ovarian cancer SK-OV-3 in nude mice.
Human ovarian cancer SK-OV-3 cells were subcutaneously inoculated to nude mice. After the tumor volume reached 100-150 mm^3, the animals were randomly divided into groups (D0), and administered with the water soluble paclitaxel derivatives of the present invention, paclitaxel, and Abraxane®, respectively once per day for 5 days. The tumor volume was measured 2-3 times per week, the animals were weighed and the data were recorded until day 22 (D22) after grouping.
(§2) The tumor volume (V) was calculated according to the equation: V=½×a×b^2, wherein a and b represent the length and the width, respectively.
(§3) T/C (%)=(T−T0)/(C−C0)×100, wherein T and C represent the tumor volume at the end of the experiment; and T0 and C0 represent the tumor volume at the beginning of the experiment.
Data set [7] in a line: in vivo. To be noted: male, SD, rat, iv, 5 mg/kg.
Description: (§4) After 5 min of administration, 0.3 ml of venous blood was taken from the retrobulbar venous plexus of the rats, placed in heparinized tubes, and centrifuged at 11,000 rpm for 5 min. Blood plasma was separated, and the concentrations of the compounds in the blood plasma were determined by liquid chromatography-mass spectrometry.
The nature of data set [8]: LD50 of the carboxylic acid derivative in mice via the caudal vein. As to conditions: mouse, in vivo, intravenous, solution in physiological saline pH 7.4. The source says:
In addition, the inventors dissolved the compound of the present invention having the following formula in physiological saline, adjusted the pH of the solution to 7.4, and administered the solution to mice through the caudal vein.

Data set [9] can be described thus: in vivo. To be noted: male, SD, rat, iv, 5 mg/kg. The source holds these as a separate data set.
Description: as §1
For data set [10], the system named is human prostate cancer PC-3. As to conditions: 14 mg/kg.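 Note: human prostate cancer PC-3 cells implanted under the skin of nude mice to form the xenograft.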
Excerpt: Test of the inhibitory activity of the water soluble docetaxel derivatives on subcutaneously xenografted tumor of human prostate cancer PC-3 in nude mice: evaluating and comparing the inhibitory activity of the water soluble docetaxel derivatives and docetaxel on subcutaneously xenografted tumor of human prostate cancer PC-3 in nude mice.
Human prostate cancer PC-3 cells were subcutaneously inoculated into nude mice. After the tumor volume reached 100-150 mm^3, the animals were randomly divided into several groups, and administered with the water soluble docetaxel derivatives of the present invention and docetaxel, respectively once on the same day (D0). The tumor volume was measured 2-3 times per week, the animals were weighed and the data were recorded until day 20 (D20) after grouping.
as §2, §3
For data set [11], the system named is Kunming mice. Kind of data set: Latent period and persistent period of anesthesia in mice. The format is in vivo.
The test system of data set [12] is KM mice. Kind of data set: ED50 and LD50 test concerning anesthesia (sequential method) in mice. The format is in vivo. To be noted: confirmation test; for ED50: Mus musculus, anesthesia (loss of righting reflex); for ED50 / Mouse LD50: caudal vein injection.
Description: (§5) Test samples for the experiment on rabbit were formulated to have corresponding concentrations based on the results from a preliminary test. […] Rats and mice were administered with samples having a fixed concentration of drugs, while the volume of administration altered according to actual situation. The volume of administration to rabbits was 1 mL/kg body weight.
(§6) ED50 and LD50 values concerning anesthesia were determined using a sequential method. Healthy KM mice (male), SD rats (male) and New Zealand White rabbits were used for test. […] For rabbits, the compounds were administered by injection at a constant rate via ear vein for 30 seconds. Before the test, a preliminary test was conducted to determine an approximate dosage (volume of administration) that leads to anesthetization (or death) of animals, which was set as the middle dosage in the formal test. […] The disappearance of righting reflex or death was used as indicators of pharmacological efficacy or toxicity, respectively. The formal test began with the administration of the middle dosage. If animals were anesthetized, a lower dosage was administered; if animals were not anesthetized, a higher dosage was administered, until the cycle was repeated for 3-4 times. LD50 and ED50 were calculated by a sequential method aot425 software. TI was calculated according to the following equation: TI=LD50/ED50.
For data set [13], the system named is SD rats. Briefly: ED50 and LD50 test concerning anesthesia (sequential method) in rats. Type of data set: in vivo. As to conditions: for ED50: Rattus norvegicus, anesthesia (loss of righting reflex); for ED50 / Rat LD50: caudal vein injection.
Description: as §5, §6
For data set [14] the following is noted: rats, 5 mg/kg intravenous, 5 min after administration. This is another data set of the same source.
Description: as §4
Where [15] appears, read: dosage 1.25 * ED50 (propofol 15 mg/kg, fospropofol 85 mg/kg).
[16] abbreviates: fospropofol 136 mg/kg (2 * ED50).
Setting [17] is: D22, 24 mg/kg (paclitaxel 16 mg/kg) D0-4 IV.
Setting [18] is: PC-3 xenograft, nude mice, D0 IV, single dose, D20.
[19] abbreviates: intravenous injection, dosage 2 * ED50, 3 mg/ml solution.
The mark [20] stands for this setting: propofol 25 mg/kg (2 * ED50), results from the present lab.

The term Solubility denotes the concentration that dissolves in the medium under given conditions. Higher therefore signals much dissolved substance. On to `CC(=O)O[C@@]12CO[C@@H]1C[C@H](O)[C@@]1(C)C(=O)[C@H](O)C3=C(C)[C@@H](OC(=O)[C@H](OC(=O)C(F)(F)CCCCCN4CC4)[C@@H](NC(=O)OC(C)(C)C)c4ccccc4)C[C@@](O)([C@@H](OC(=O)c4ccccc4)[C@H]21)C3(C)C.CS(=O)(=O)O` [Compound 14, 2′-O-[7-N-(aziridin-1-yl)-2,2-difluoroheptanoyl]docetaxel methanesulfonate], for which the values for the dissociation percent in [1] (2 min), in data set [1] (5 min) and in data set [1] (10 min) were 42.1%, 55.7% and 72.5%, respectively. Further, the Solubility in data set [2] came out at 14.3 mg/mL.

Take `CC(=O)O[C@@]12CO[C@@H]1C[C@H](O)[C@@]1(C)C(=O)[C@H](O)C3=C(C)[C@@H](OC(=O)[C@H](OC(=O)[C@@H](F)CCN(C)C)[C@@H](NC(=O)OC(C)(C)C)c4ccccc4)C[C@@](O)([C@@H](OC(=O)c4ccccc4)[C@H]21)C3(C)C.Cl` [Compound 05, 2′-O-[4-(N,N-dimethyl)amino-2(S)-fluorobutyryl]docetaxel hydrochloride]: the dissociation percent turned out to be 79.3% in [3] (5 min); 91.8% in data set [3] (20 min); 100% in data set [3] (60 min); 56.4% in data set [1] (2 min); 91.1% in data set [1] (5 min); 100% in data set [1] (10 min). For the same compound, in data set [4], the “detection of the administered derivative in the blood plasma” value (“detection of the administered derivative” below) is reported as “cannot be detected”.

As to `CC(=O)O[C@@]12CO[C@@H]1C[C@H](O)[C@@]1(C)C(=O)[C@H](O)C3=C(C)[C@@H](OC(=O)[C@H](OC(=O)C(F)CCN(C)C)[C@@H](NC(=O)OC(C)(C)C)c4ccccc4)C[C@@](O)([C@@H](OC(=O)c4ccccc4)[C@H]21)C3(C)C.Cl` (stereo partly drawn) [Compound 06, 2′-O-[4-(N,N-dimethyl)amino-2(R,S)-fluorobutyryl]docetaxel hydrochloride], the dissociation percent in data set [3] (5 min) is recorded as 75.6%; in data set [3] (20 min), 98.6%; in data set [3] (60 min), 100%; in data set [1] (2 min), 56.4%; in data set [1] (5 min), 91.1%; in [1] (10 min) it was 100%. Further, in data set [4], the “detection of the administered derivative” value is “cannot be detected”.

As for `CC(C)c1cccc(C(C)C)c1OCOP(=O)(O)O` [Fospropofol], the “Latent Period” value in data set [5] (setting [15]) was 105 s. For the same compound, in data set [5] (setting [16]), the “Latent Period” value is recorded as 81 s and the Persistent period was 804 s.

`CC(=O)O[C@H]1C(=O)[C@@]2(C)[C@H]([C@H](OC(=O)c3ccccc3)[C@]3(O)C[C@H](OC(=O)[C@H](O)[C@@H](NC(=O)c4ccccc4)c4ccccc4)C(C)=C1C3(C)C)[C@]1(OC(C)=O)CO[C@@H]1C[C@@H]2O` [paclitaxel, reference compound]: in data set [6] (D0, at grouping, 24 mg/kg (paclitaxel 16 mg/kg) D0-4 IV), the “Tumor volume (D0)” value amounted to 134.6 ± 19.7 mm^3. Further, in data set [6] (setting [17]), the “T/C (%) D22” value was −60% and the “Tumor volume (D22)” value stood at 53.7 ± 11.2 mm^3. Moreover, the “Tumor inhibitory percent (%) D22” value in data set [6] (D22, 24 mg/kg (paclitaxel 16 mg/kg) D0-4 IV, P=0.000 compared to the control) was determined as 160%. The “Weight change (%) D4” value in data set [6] (mouse, in vivo) is given as −4.8%. This compound also returned a concentration at 5 min in data set [7] of 1790 ng/mL.

Take `CC(=O)O[C@H]1C(=O)[C@@]2(C)[C@H]([C@H](OC(=O)c3ccccc3)[C@]3(O)C[C@H](OC(=O)[C@H](OC(=O)C(F)(CCCCCCN(C)C4CCCC4)C(F)(F)F)[C@@H](NC(=O)c4ccccc4)c4ccccc4)C(C)=C1C3(C)C)[C@]1(OC(C)=O)CO[C@@H]1C[C@@H]2O.CS(=O)(=O)O` (stereo partly drawn) [Compound 15, 2′-O-[8-(N-methyl-N-cyclopentyl)amino-2(R,S)-2-trifluoromethyl-2-fluorooctanoyl]paclitaxel methanesulfonate]: the dissociation percent in [1] (2 min) stood at 35.0%; in data set [1] (5 min) it was 46.2%; in data set [1] (10 min), 57.9%. In [2], this compound came in with a Solubility of 15.0 mg/mL.

By LD50 is commonly meant the dose at which mortality reaches 50%. Read a high LD50 as lower toxicity. Compound `CN(C)CC[C@@H](F)C(=O)O.Cl` yielded an LD50 in data set [8] of over 1500 mg/kg.

In [9], `CC(=O)O[C@@]12CO[C@@H]1C[C@H](O)[C@@]1(C)C(=O)[C@H](O)C3=C(C)[C@@H](OC(=O)[C@H](O)[C@@H](NC(=O)OC(C)(C)C)c4ccccc4)C[C@@](O)([C@@H](OC(=O)c4ccccc4)[C@H]21)C3(C)C` [docetaxel, reference compound] showed a concentration at 5 min of 769 ng/mL. In addition, in data set [10] (PC-3 xenograft, nude mice, D0 IV, single dose, D0 (baseline at grouping)), the “Tumor volume (mm^3) (D0)” value came out at 111.5 ± 1.3 mm^3. In addition, in [10] (setting [18]), the “T/C (%) D20” value is −27% and the “Tumor volume (mm^3) (D20)” value stood at 81.4 ± 25.1 mm^3. Further, the “Tumor inhibitory percent (%) D20” value in [10] (PC-3 xenograft, nude mice, D0 IV, single dose, D20, P(D20)=0.000 vs control) was found to be 127%. The “Weight change (%) D6” value in [10] (mouse, in vivo, iv) is on record as −12.3%.

Usually ED50 stands for the dose at which the effect has come halfway, by size or by number of responders. Lower therefore signals greater potency. Consider `CC(C)c1cccc(C(C)C)c1O` [Propofol, reference compound], for which, in data set [11] (setting [19]), the “Latent Period” value is recorded as 8.4 ± 1.1 s and the “Persistent period” value worked out at 324.8 ± 98.9 s. Besides, in [11] (setting [20]), the “Latent Period” value turned out to be 8.4 ± 1.1 s and the Persistent period was determined as 324.8 ± 98.9 s. Besides, in [12] (3 mg/ml solution), the “TI Mouse” value is 4.9, the median effective dose (ED50) came out at 7.9 mg/kg and the “Mouse LD50” value is on record as 38.4 mg/kg. Besides, in [12] (6 mg/ml solution), the “TI Mouse” value is reported as 3.8, the ED50 was 11.3 mg/kg and the “Mouse LD50” value is recorded as 42.9 mg/kg. Further, in data set [13] (3 mg/ml solution), the “TI Rat” value came out at 5.5, the 50% effect level (ED50) was put at a dose of 3.91 mg/kg and the “Rat LD50” value was 21.5 mg/kg. Further, in data set [13] (6 mg/ml solution), the “TI Rat” value is 4.9, the ED50 was 3.5 mg/kg and the “Rat LD50” value stood at 17.4 mg/kg. For the same compound, the “Latent Period” value in [5] (setting [15]) is recorded as 10.7 s.

Turning to `CC(=O)OC12COC1CC(O)C1(C)C(=O)C(O)C3=C(C)C(OC(=O)C(OC(=O)C(F)CCN(C)C)C(NC(=O)OC(C)(C)C)c4ccccc4)CC(O)(C(OC(=O)c4ccccc4)C21)C3(C)C.Cl` [Compound 04, 2′-O-[4-(N,N-dimethyl)amino-2(R)-fluorobutyryl]docetaxel Hydrochloride], the dissociation percent in [3] (5 min) was determined as 80.2%; in [3] (20 min) it was 93.5%; in data set [3] (60 min) it was 100%; in data set [1] (2 min) it was 58.6%; in data set [1] (5 min), 92.6%; in [1] (10 min), 100%. Moreover, the “detection of the administered derivative” value in data set [4] is “cannot be detected”.

With `CC(=O)O[C@H]1C(=O)[C@@]2(C)[C@H]([C@H](OC(=O)c3ccccc3)[C@]3(O)C[C@H](OC(=O)[C@H](OC(=O)[C@H](F)CCN(C)C)[C@@H](NC(=O)c4ccccc4)c4ccccc4)C(C)=C1C3(C)C)[C@]1(OC(C)=O)CO[C@@H]1C[C@@H]2O.Cl` [Compound 01, 2′-O-[4-(N,N-dimethyl)amino-2(R)-fluorobutyryl]paclitaxel Hydrochloride], the dissociation percent in [3] (5 min) is given as 76.5%; in [3] (20 min) it was 98.3%; in data set [3] (60 min) it was 100%; in data set [1] (2 min), 63.5%; in data set [1] (5 min), 96.8%; in [1] (10 min), 100%. Moreover, the “detection of the administered derivative” value in [14] was “cannot be detected”. In addition, the “mean concentration of paclitaxel in the blood plasma” value in data set [14] amounted to 1789 ng/mL.
